Source: patent US12286625B2, “Inhibition of mir-22 miRNA by APT-110” (AptamiR Therapeutics, Inc., priority 2016, dated 2025)
Like-named read-outs stand apart in the source and are kept apart here.

Assays:
[1] = Saenger 1989; cited from earlier work
[2] = test system: human subcutaneous adipocytes; assay: O2 consumption rate (OCR), Seahorse XF24 with XF Palmitate-BSA Fatty Acid Oxidation kit, human subcutaneous adipocytes; format: cell-based; settings: for basal OCR vs control adipocytes: basal conditions, rosiglitazone 100 nM or APT-110 50 nM, control BSA
Experimental: To characterize the effects of miR-22-3p inhibition on energy utilization in human subcutaneous adipocytes in culture, O2 consumption rate (OCR) was measured with the XF24 Analyzer (Seahorse Bioscience) using the XF Palmitate-BSA Fatty Acid Oxidation substrate kit during the successive addition of Oligomycin, FCCP, and Antimycin/Rotenone, following the manufacturer instructions.
Human subcutaneous pre-adipocytes (ZenBio, NC) were seeded into 96-well plates and differentiated for 7 days, then placed in maintenance medium according to the manufacturer's instructions. On Day 14, the adipocytes were transfected with 50 nM of the miR-22-3p inhibitor APT-110. Medium was exchanged every 2 to 3 days and Seahorse assay was performed on Day 21. Negative control was bovine serum albumin (BSA) and positive control was 100 nM rosiglitazone throughout the culture.

[3] = test system: human subcutaneous adipocytes; assay: Mitochondrial content/mass by MitoTracker in human subcutaneous adipocytes; format: cell-based; settings: Day 14; Rosiglitazone 100 nM
Experimental: (§1) To assess the effects of miR-22 inhibition on mitochondrial mass and activity, metabolic rate and energy expenditure, in vitro and in vivo experiments were carried out. In vitro intra-cellular assessment of mitochondrial mass and activities, as well as energy expenditure during miR-22 inhibition of human subcutaneous adipocytes were examined. In the model of primary culture of human subcutaneous adipocytes differentiated for 3 days, then transfected with 50 nM of the miR-22-3p inhibitor APT-110 and maintained in culture (n=6 per condition), the following parameters were assessed on Day 14.
(§2) Human subcutaneous preadipocytes purchased from ZenBio, NC (Catalog #: SP-F-SL) were plated at confluence in 96-well plates and allowed to attach overnight in preadipocyte medium (DMEM/Ham's F-12 (1:1, v/v), HEPES buffer, fetal bovine serum and antibiotics) following the supplier's instructions. […] Using a 96-well format, gene expression was determined by q-RT-PCR kit following the Manufacturer's instructions (TaqMan Gene Expression Cells-to-Ct kit, Life Technologies, cat #AM1728) and a 7900 HT Fast Real Time PCR System (Applied Biosystems). […] Mitochondrial mass and activity as well as UCP-1 protein expression were determined by high content imaging (ArrayScan XTI and BMG Fluostar Galaxy reader), with UCP-1 antibody (abcam cat #ab10983), and MitoTracker® Deep Red FM (ThermoFisher M22426).

[4] = test system: UCP-1 protein expression in human subcutaneous adipocytes; assay: UCP-1 protein expression by immunofluorescence in human subcutaneous adipocytes; format: cell-based; settings: Day 14; 50 nM APT-110 or 100 nM rosiglitazone; PBS 48±3%
Experimental: as §1, with “14. […]” for “14.”
as §2

[5] = test system: DIO C57BL/6J male mice; assay: APT-110 in 14-week old DIO mice on 60% high fat diet treated 6 weeks; format: in vivo, mouse
Experimental: A similar study was performed in 14-week old mice (n=9 per group) which were randomized into 2 groups according to similar body weights and kept on 60% high fat diet (Research Diet D12492) for 6 weeks. One group of mice received subcutaneous injections in the left inguinal fat pad of a custom-designed miR-22-3p inhibitor (APT-110, 18 nucleotides long, 15 mg/kg) on days 0, 2, and 4 of the first week, then once a week for the next 5 weeks. The other group kept on 60% high fat diet received saline injections.
Body composition was measured by NMR at the end of the study (week 6 of treatment). Fat mass was 30% lower in the APT-110 miR-22-3p inhibitor group on 60% fat diet than that in the control group on saline and 60% fat diet (11.29±0.87 vs. 16.11±0.87 grams, p<0.0017). Lean mass was similar in both groups at week 6 of treatment (21.74±0.99 vs. 22.33±0.63 grams).
DIO male C57BL/6J mice were started on a 60% high fat diet at the age of 6-week old and were randomized according to body weight into treatment groups (8 to 12 animals per group) at various ages. After acclimation for 1 to 2 weeks, the mice were administered subcutaneous injections of saline or a miR-22 antagomir in the left inguinal fat pad (injections on Days 0, 2, and 4, then once a week for up to 12 weeks) while they remained on the 60% high fat diet. In some studies, another control group of mice was switched back to a normal 10% fat chow at the time of treatment randomization.
Blood samples were collected by retro-orbital bleeds or cut tip of the tail. Mice underwent body composition analysis by NMR (Bruker LF50 BCA-Analyzer) while they were gently restrained to keep them quiet during this non-invasive measurement. Liver, heart, inguinal fat, perirenal or epididymal fat, and subscapular fat were weighed and collected for histology (10% formalin fixed, then transferred to 70% ethanol for shipment) and gene expression (flash frozen in duplicate). Spleens were weighed and discarded. Blood was collected and processed into serum or plasma at the time of necropsy by cardiocentesis. Serum level of alanine aminotransferase (ALT), aspartate aminotransferase (AST), glucose, insulin, cholesterol and triglycerides were measured.

[6] = test system: DIO C57BL/6 male mice; format: in vivo, mouse; set-up: Plasma adiponectin: unit not given here; settings: for energy expenditure after i.p. injection: 0.5 mg/kg i.p.
Experimental: A dedicated study was conducted under contract at the University of Buckingham Institute of Translational Medicine (Pr. M A Cawthorne, Pr. P Trayhurn, Dr. C. Stocker) to assess the energetic and metabolic responses to the APT-110 miR-22-3p inhibitor treatment in adult Diet-Inducted-Obese (DIO) C57BL/6 male mice over the course of 3 months. Twenty-four DIO male C57BL/6 mice, who started on 60% high fat diet at the age of 7 weeks, were purchased at 15 weeks of age from the Jackson Laboratory, USA. The mice remained on a 60% high fat diet (Research Diet D12492) throughout the experiment. The mice were kept on a 12 h light/12 h dark light cycle with lights on at 08h00 and at a room temperature of 25±1° C. The mice were allocated to 2 groups of 12 mice each, (2 mice/cage) so that mean and standard deviation for body weight, blood glucose and serum insulin were similar across both groups. Mice were acclimated for two weeks before treatment initiation.
For oral glucose tolerance test, food was removed six hours prior to the start of the glucose tolerance test (09h00) and animals were placed in clean cages. Mice were dosed with glucose at T=0 minutes. Glucose was dissolved in water and given to the mice by oral gavage at a dose of 2.5 g/kg p.o. Blood samples […] were taken from the cut tip of the tail after the application of Lidocaine gel (Biorex Laboratories UK) for the analysis of glucose concentration at −30, 0, 30, 60, 120 and 180 minutes relative to glucose administration. Blood samples were also taken at −30 and +30 minutes for insulin analysis (Crystal Chem Inc. Cat INS90090). Food was returned to the animals at the end of the glucose tolerance test. Plasma nonesterified Fatty Acids (NEFA, Crystal Wako Chemicals Gmbh, Neuss, Germany, Cat 999-75406), leptin (Crystal Chem. Inc., Cat LEP90030) and adiponectin (Alpco Diagnostics, Salem, New Hampshire, Cat 47-ADPMS-E01) were measured as per the manufacturers' recommendations. Body fat and lean content was measured by Nuclear Magnetic Resonance (NMR). Comparison with calibrated standards allowed identification of types of tissue by their density. Dedicated software was used to quantify amounts of adipose and […]. The mice were gently restrained, sufficient to keep them quiescent during this non-invasive technique.
To measure physical activity, mice were kept in their original cages of 2 mice per cage. Recordings were taken using an infra-red recorder linked to a laptop. Recordings were made on the hour every hour from 7 pm until 8 am. Each recording was of 10-minute duration. Lights went out at 8 pm and came on again at 8 am. Analysis of activity was done by virtually drawing 2 lines across each cage (thus dividing them into 3 equal parts). Recordings were analyzed by eye and the number of times a line was broken by a mouse in each 10-minute segment was scored. Energy expenditure was measured at several time points during the course of the study by open-circuit indirect calorimetry with mice kept in their home cages (6 cages of 2 mice per experimental group (Arch, J. R., et al., 2006; Arch, J. R. and P. Trayhurn, 2013).
At the end of the study, tissues and organs were collected, then frozen for future gene expression analysis or placed in 10% neutral buffered formalin solution (Sigma-Aldrich Cat HT501128), then washed in PBS, pH 7.4 and transferred to 70% ethanol for subsequent processing for histologic and immunohistochemistry analyses.
In some studies, non-esterified fatty acids (NEFA), plasma leptin and adiponectin were also measured and oral glucose tolerance tests (OGTT) were performed. Oral glucose tolerance test was performed as follows: Six hours prior to the start of the glucose tolerance test (09h00), food was removed and animals were given clean cages. Mice were dosed with glucose at T=0 minutes. […]

[7] = Day −2 (before treatment), 6 hours fast
[8] = end of 12-week study, Mean ± SEM

Molecule: Nc1nc2c(ncn2[C@@H]2O[C@H](CO)[C@@H](O)[C@H]2O)c(=O)[nH]1 [guanosine]
- pKa [1]: 9.42

Molecule: Nc1ncnc2c1ncn2[C@@H]1O[C@H](CO)[C@@H](O)[C@H]1O [adenosine]
- pKa of the conjugate acid [1]: 3.52

Molecule: Cc1cn([C@H]2C[C@H](O)[C@@H](CO)O2)c(=O)[nH]c1=O [thymidine]
- pKa [1]: 9.93

Molecule: CN(CCOc1ccc(CC2SC(=O)NC2=O)cc1)c1ccccn1 (stereo not shown) [Rosiglitazone, reference compound]
- maximum respiration vs control ([2]; after FCCP, rosiglitazone 100 nM): 4 fold
- basal OCR vs control adipocytes [2]: 4 fold
- cell density relative to miR-22-3p inhibitor condition [3]: 3 times more cells
- number of UCP1 positive cells [4]: 58±2%

Molecule: 5′-5mCpsTpsTps2′OMeCpsTpsTps5mCpsApsAps2′OMeCpsTpsGpsGps5mCpsApsGps5mCpsT-3′ [APT-110]
- non-mitochondrial respirations and proton leak on addition of palmitate ([2]; APT-110 50 nM + palmitate): dramatic increase
- maximum respiration increase ([2]; APT-110 50 nM, assay Day 21): 33%
- basal OCR vs control adipocytes [2]: 2 fold
- weight increase week 6 vs Week 0 ([5]; 60% high fat diet, 15 mg/kg SC, saline 22%): 6%
- blood glucose after fasting for 4 hours ([5]; Day 35 of treatment, saline 245±8): 183 ± 11 mg/dL
- random blood glucose ([5]; Day 44 of treatment, at necropsy, saline 341±9): 212 ± 12 mg/dL
- fat mass lower than control group on saline ([5]; NMR, week 6): 30%
- fat mass ([5]; NMR, week 6, saline 16.11±0.87): 11.29±0.87 grams
- lean mass ([5]; NMR, week 6, saline 22.33±0.63): 21.74±0.99 grams
- body weight ([5]; Week 0 (baseline)): 34.15±0.53 grams
- serum cholesterol ([5]; at necropsy, saline 164±6): 110 ± 5 mg/dL
- body weight ([5]; week 6, 60% high fat diet, saline 41.73±1.07): 36.16±0.67 grams
- 24-hr energy expenditure vs saline ([6]; Day 10 of treatment): did not show a difference
- energy expenditure vs saline ([6]; Day 11, confirmed on Day 28 and Day 52): increase in energy expenditure
- Blood glucose ([6]; Day 44, 6 hours fast): 9.01 ± 0.19 mmol/L
- Plasma adiponectin ([6]; Day 44, 6 hours fast): 2.66 ± 0.15
- Plasma insulin ([6]; Day 44, 6 hours fast): 295 ± 25 pmol/L
- Plasma leptin ([6]; Day 44, 6 hours fast): 4.85 ± 0.42 nmol/L
- Oral Glucose Tolerance Test profile ([6]; Day 75, glucose 2.5 g/kg p.o., saline mice diabetic profile): normal profile
- Blood glucose ([6]; Day 79, 6 hours fast): 5.71 ± 0.18 mmol/L
- Plasma adiponectin ([6]; Day 79, 6 hours fast): 3.16 ± 0.13
- Plasma insulin ([6]; Day 79, 6 hours fast): 220 ± 17 pmol/L
- Plasma leptin ([6]; Day 79, 6 hours fast): 4.21 ± 0.54 nmol/L
- Cholesterol ([6]; Day 85, 6-hour fast, p<0.0001): 4.67 ± 0.16 mmol/L
- Non Esterified Fatty Acids ([6]; Day 85, 6-hour fast, p=0.003): 1.71 ± 0.08 mmol/L
- Triglycerides ([6]; Day 85, 6-hour fast, p=0.11): 1.46 ± 0.08 mmol/L
- Blood glucose [6, 7]: 6.69 ± 0.27 mmol/L
- Plasma adiponectin [6, 7]: 3.16 ± 0.13
- Plasma insulin [6, 7]: 179 ± 18 pmol/L
- Plasma leptin [6, 7]: 3.11 ± 0.45 nmol/L
- fat mass difference vs saline (NMR) ([6]; Week 12, Day 82): −12%
- lean mass (NMR) ([6]; Week 12, Day 82): identical in both groups
- total daily energy expenditure greater than saline ([6]; average, day 11 to day 53): 13%
- insulin sensitivity (fasting Insulin/Glucose ratio over time) ([6]; course of the 12-week study, control group developed insulin resistance): maintain the same level of insulin sensitivity
- Epdidymal fat weight [6, 8]: 1.8 ± 0.978 grams
- Inguinal fat weight [6, 8]: 3.166 ± 0.135 grams
- Liver weight [6, 8]: 2.442 ± 0.127 grams
- Peri-renal fat weight [6, 8]: 1.183 ± 0.096 grams
- Subscapular fat weight [6, 8]: 0.202 ± 0.020 grams
- weight gain vs mice receiving saline injections ([6]; week 12 of treatment, 60% high fat diet): −30%

Molecule: C[C@H](Cc1ccc2c(c1)OC(C(=O)[O-])(C(=O)[O-])O2)NC[C@H](O)c1cccc(Cl)c1.[Na+].[Na+] [CL316243, reference compound]
- energy expenditure after i.p. injection ([6]; APT-110 group): increased
- energy expenditure after i.p. injection ([6]; control (saline) group): increased
